# Data taken from patent publication US12433874B2 (PRESCIENCE BIOTECHNOLOGY INC., priority 2022, dated 2025).
# What was measured:
# [1] = test system: CT26 cells (murine colorectal carcinoma cell); experiment: CT26 mouse colon cancer model; assay type: in vivo; details: 5-FU 25 mg/kg Q3d*4, RAP-E 25 mg/kg Q3d*4
# Method: CT26 model on Balb/c mice was used as another animal model, classified as three groups: a control group (no drug), a comparative group (administration of 5-FU, dose: 25 mg/kg, Q3d*4) and the inventive group (administration of RAP-E formulation, dose: 25 mg/kg, Q3d*4). 6 week old Balb/c mice (BioLasco, Ilan, Taiwan) were inoculated subcutaneously with 1*10^5 CT26 cells (murine colorectal carcinoma cell). Following tumor inoculation, measuring the tumor size twice a week, and starting treatment when the tumor grows to 80-100 mm^3.
# [2] = BCS Class II drug; cited from earlier work
# [3] = test system: SKOV3 cells (human ovarian cancer cell); assay type: in vivo; details: docetaxel 4 mg/kg Q3d*4; RAP-E 50 mg/kg Q3d*4
# Excerpt: Akt and mTOR phosphorylation are frequently detected in ovarian cancer, and SKOV3, an ovarian cancer cell line, is resistant to cis-platinum and doxorubicin.
# [4] = tablet form; cited from earlier work
structure (smiles),measurement,setting,value
O=c1[nH]cc(F)c(=O)[nH]1 [5-FU],Mean inhibition rate (tumor volume),[1],11%
same,toxicity (body weight change),[1],significant weight loss
same,Day 16 tumor inhibition rate,[1]; day 16,26%
CO[C@H]1C[C@@H]2CC[C@@H](C)[C@@](O)(O2)C(=O)C(=O)N2CCCC[C@H]2C(=O)O[C@H]([C@H](C)C[C@@H]2CC[C@@H](O)[C@H](OC)C2)CC(=O)[C@H](C)/C=C(\C)[C@@H](O)[C@@H](OC)C(=O)[C@H](C)C[C@H](C)/C=C/C=C/C=C/1C [Rapamycin],permeability,[2],high permeability
CC(=O)O[C@@]12CO[C@@H]1C[C@H](O)[C@@]1(C)C(=O)[C@H](O)C3=C(C)[C@@H](OC(=O)[C@H](O)[C@@H](NC(=O)OC(C)(C)C)c4ccccc4)C[C@@](O)([C@@H](OC(=O)c4ccccc4)[C@H]21)C3(C)C [docetaxel],Mean inhibition rate (tumor volume),[3],53%
CO[C@H]1C[C@@H]2CC[C@@H](C)[C@@](O)(O2)C(=O)C(=O)N2CCCC[C@H]2C(=O)O[C@H]([C@H](C)C[C@@H]2CC[C@@H](OCCO)[C@H](OC)C2)CC(=O)[C@H](C)/C=C(\C)[C@@H](O)[C@@H](OC)C(=O)[C@H](C)C[C@H](C)/C=C/C=C/C=C/1C [everolimus],bioavailability,[4],~20%
